Assay results as given in patent publication US8901110B2, “Use of biomarkers in methods for the treatment of hepatocellular carcinoma” (Celgene Corporation, priority 2012, dated 2014).

What was measured:
[1] = system: Focus cells (poorly differentiated HCC cell line); assay: Cell migration assay (migration chamber), Focus cell line; type: cell-based
Method: (§1) Focus and Hub7 cells were treated with 10 μM of LM in DMSO or DMSO as a control for 24 hrs. The cells were transferred in a migration chamber (BD Biosciences). The lower chamber was filled with 10% FBS-containing medium as a chemoattractant and was separated from the upper chamber by a 8 μm pore membrane. After 16 hrs, the remaining cells in the upper chamber (non-migrated cells) were removed and the cell attached to the bottom of the membrane (migrated cells) were stained with crystal violet and counted using Stereologer (SRC) in 10 different fields of the membrane.
(§2) In another set of experiments, the effects of LM and Compound A on HCC cell migration and invasion were assessed using procedures similar to those described above using FOCUS cell line (poorly differentiated HCC cell line).

[2] = system: FOCUS cell line (poorly differentiated HCC cell line); assay: Wound healing assay, FOCUS cell line; type: cell-based; details: FIG. 7
Method: (§3) 1. Cell seeding: A grid on the underside of the plate (60 mm) was drawn according to the paper diagram. Cells were seeded on 60 mm dish (aimed for confluent cells).
(§4) 2. Scratch wound: Using a tip (green), a scratch wound was made. The locations of the wounds were recorded by drawing on a paper. SF DMEM+trypsin aliquot was retrieved from the incubator, and the media/floating cells from the dish was aspirated. Cells were washed with DMEM+Trypsin to remove cells that have not been completely scratched away from the wound. Then the dish was filled with 4 ml of 10% FBS DMEM.
(§5) 3. Taking photographs: The marker was included on the top of the image frame so the same wound area can be kept track of. Then pictures of those wounds for the indicated time points were taken. Results were expressed as percentage of wound closure, as an index of cell migration, normalized to the initial width.
In another set of experiments, the effects of LM and Compound A on HCC cell migration were assessed using wound healing assay in FOCUS cell line (poorly differentiated HCC cell line).

TCF-4 = assay: Western blot of nuclear TCF-4 expression after LM treatment; type: cell-based; details: 10 μM, 24 hrs; poorly-differentiated cells (Focus); normalized by lamin; FIG. 1
Method: Focus and Hub7 cells were treated with 10 μM of lenalidomide (“LM”) in DMSO or DMSO as a control for 24 hrs. Nuclear and cytosolic proteins were separately extracted and the expression of TCF-4 was analyzed by western blot. Nuclear expression of both long and short isoforms of TCF-4 was qualified using ImageJ (NIH) and normalized by expression of lamin.

[3] = system: Focus cells (poorly differentiated HCC cell line); assay: Cell invasion assay (Matrigel-coated chamber), Focus cell line; type: cell-based
Method: (§6) Focus and Hub7 cells were treated with 10 μM of LM in DMSO or DMSO as a control for 24 hrs. The cells were transferred in a migration chamber coated with Matrigel (BD Biosciences). After 16 hrs, invasive cells attached to the bottom of the membrane were stained/counted and normalized by the number of migrative cells in a corresponding non-coated migration chamber.
as §2

[4] = system: HAK-1A cell line (well differentiated HCC cell line); assay: Wound healing assay, HAK-1A cell line; type: cell-based; details: FIG. 6
Method: In another set of experiments, the effects of LM and Compound A on HCC cell migration were assessed using wound healing assay in HAK-1A cell line (well differentiated HCC cell line). The following procedures were used.
as §3, §4, §5

HAK1A-J xenograft [5] = assay: HAK1A-J xenograft models (tumor volume); type: in vivo; details: male mice; compared with control or LM treated mice; FIG. 21
Method: Effects of LM and Compound A in HAK1A-J xenograft models were examined using 50 male mice 4 weeks of age. Anti-tumor effects of LM and Compound A were assessed following the xenograft by measuring tumor volume after the treatment by the drugs.

HAK1A-J xenograft [6] = assay: HAK1A-J xenograft models, pilot study (tumor volume); type: in vivo, mice; details: compared with control, FIG. 19
Method: Effects of LM and Compound A in HAK1A-J xenograft models were examined in a pilot study using 5 animals (mice). Anti-tumor effects of LM and Compound A were assessed following the xenograft by measuring tumor volume after the treatment by the drugs.

[7] = system: HAK-1A cell line (well differentiated HCC cell line); assay: Cell migration assay (migration chamber), HAK-1A cell line; type: cell-based; details: FIG. 3
[8] = system: HAK-1B cell line (poorly differentiated HCC cell line); assay: Cell migration assay (migration chamber), HAK-1B cell line; type: cell-based; details: FIG. 4
Method: as §1
(§7) In another set of experiments, the effects of LM and Compound A on HCC cell migration and invasion were assessed using procedures similar to those described above, except that HAK-1B cell line (poorly differentiated HCC cell line) was employed.

[9] = system: TCF-4J isoform dependent target genes; assay: qRT-PCR of TCF-4J responsive target genes in xenograft tumors; type: in vivo, mice; details: for mRNA expression: HAK1A-J xenograft models, legend of FIG. 22, genes not named
Method: Effects of LM and Compound A on expression of TCF-4J responsive target genes in HAK-1A xenograft tumors were assessed by measuring mRNA expression levels of TCF-4J isoform dependent target genes in xenograft tumors treated with LM, Compound A and control vehicle. The following procedures were used: Total RNA was extracted from tumors using TRIzol Reagent, and reverse transcription was performed with First Strand cDNA Synthesis Kit for RT-PCR (AMV). Quantitative real-time PCR was carried out on a Mastercycler ep realplex instrument and software, using SYBR Green PCR reagents. Relative quantification was performed using ΔΔCt method, normalizing to 18S rRNA. Dissociation curves were generated to evaluate PCR product specificity and purity.

[10] = system: HAK-1B cell line (poorly differentiated HCC cell line); assay: Wound healing assay, HAK-1B cell line; type: cell-based; details: FIG. 8
Method: as §3, §4, §5
In another set of experiments, the effects of LM and Compound A on HCC cell migration were assessed using wound healing assay in HAK-1B cell line (poorly differentiated HCC cell line).

[11] = system: HCC cell lines Huh7, FOCUS, HAK-1A and HAK-1B; assay: MTS assay (cytotoxicity); type: cell-based; details: 24 or 72 hours; FIG. 17
Method: MTS assay was performed to evaluate the toxicity of Compound A for HCC cell lines Huh7, FOCUS, HAK-1A and HAK-1B. Compound A, at various concentrations ranging from […], was incubated with the specified cells for 24 or 72 hours.

[12] = system: HAK-1B cell line (poorly differentiated HCC cell line); assay: Cell invasion assay (Matrigel-coated chamber), HAK-1B cell line; type: cell-based; details: HAK-1B (printed HAK-1AB), FIG. 4
Method: as §6, §7

[13] = another set of experiments, FOCUS, poorly differentiated, FIG. 5
[14] = xenograft tumors, ΔΔCt, normalized to 18S rRNA, FIG. 22

Compound | cell migration [1, 13] | cell migration (wound closure) [2] | cell invasion [3, 13] | cell migration (wound closure) [4] | tumor volume (HAK1A-J xenograft [5]) | tumor volume (HAK1A-J xenograft [6]) | cell migration [7] | cell migration [8] | mRNA expression [9] | also measured
Nc1cccc2c1CN(C1CCC(=O)NC1=O)C2=O (stereo not drawn) [LM, 1-oxo-2-(2,6-dioxopiperidin-3-yl)-4-aminoisoindoline, reference compound] | did not inhibit cell migration | reduced cell migration | inhibited cell invasion | did not affect the cell migration | reduction of tumor volume was observed | significantly reduced the volume of tumors | did not affect the cell migration | inhibited cell migration | reduction of mRNA expression | cell migration ([1]; 10 μM, 24 hrs, migrated cells counted after 16 hrs, Focus, FIG. 2): inhibited cell migration; TCF-4 expression, short and long forms (nuclear) (TCF-4): decreased; cell invasion ([3]; 10 μM, 24 hrs, invasive cells after 16 hrs, normalized by migrative cells, Focus, FIG. 2): inhibited cell invasion
Cc1nc2cccc(N)c2c(=O)n1C1CCC(=O)NC1=O (stereo not drawn) [Compound A, 3-(5-amino-2-methyl-4-oxo-4H-quinazolin-3-yl)-piperidine-2,6-dione] | did not inhibit cell migration | reduced cell migration | inhibited cell invasion | did not affect the cell migration | much more significantly reduced the volume of tumors | significantly reduced the volume of tumors | did not affect the cell migration | inhibited cell migration | reduction of mRNA expression | cell migration (wound closure) [10]: reduced cell migration; HCC cell proliferation [11]: no effect on HCC cell proliferation; cell invasion [12]: inhibited cell invasion; mRNA level of ANXA1 [9, 14]: reduced; mRNA level of ASPH [9, 14]: reduced; mRNA level of CAMK2N1 [9, 14]: reduced; mRNA level of CLDN2 [9, 14]: reduced; mRNA level of GPR56 [9, 14]: reduced; mRNA level of JAG1 [9, 14]: reduced
